Activity calls are given as the source filed them.
Legend:
[1] = SK-MEL-5 parental cell viability reduction, dose response, orthogonal assay for MITF inhibitor project, CellTiter-Glo luminescence, dry powder, set 8 (AID 651586); assay type: functional, cell-based
[2] = TRPM1 promoter luciferase reporter signal decrease, dose response, MITF inhibitor project, cell-based, SK-MEL-5, dry powder, set 9 (AID 651588); assay type: functional
[3] = MITF Orthogonal Assay: MALME3 CTG Assay Measured in Cell-Based System Using Plate Reader - 2084-04_Inhibitor_Dose_DryPowder_Activity_Set6.; assay type: functional; settings: MALME-3
[4] = MITF: Counter assay: A375 proliferation Measured in Cell-Based System Using Plate Reader - 2084-03_Inhibitor_Dose_DryPowder_Activity_Set8.; assay type: functional; settings: A-375
[5] = A375 melanoma cell viability loss, dose response, counter-screen for MITF modulator project, CellTiter-Glo luminescence, dry powder, set 9 (AID 651591); assay type: functional, cell-based; settings: A-375
[6] = MITF Orthogonal Assay: SK-MEL-5 CTG Assay Measured in Cell-Based System Using Plate Reader - 2084-02_Inhibitor_Dose_DryPowder_Activity_Set7.; assay type: functional
[7] = MALME3 melanoma cell viability reduction, dose response, orthogonal assay for MITF inhibitor project, CellTiter-Glo luminescence, dry powder, set 5 (AID 651584); assay type: functional, cell-based; settings: MALME-3
[8] = TRPM1 promoter luciferase reporter signal decrease, dose response, MITF inhibitor project, cell-based, SK-MEL-5, dry powder, set 8 (AID 624430); assay type: functional
[9] = target: T1, High affinity choline transporter 1 (Homo sapiens, UniProt Q9GZV3); experiment: CHT choline uptake inhibitors, dose response, cell-based, HEK-293 hCHT, [3H]-choline uptake (AID 652177); assay type: functional
T1 sequence (Q9GZV3 whole entry): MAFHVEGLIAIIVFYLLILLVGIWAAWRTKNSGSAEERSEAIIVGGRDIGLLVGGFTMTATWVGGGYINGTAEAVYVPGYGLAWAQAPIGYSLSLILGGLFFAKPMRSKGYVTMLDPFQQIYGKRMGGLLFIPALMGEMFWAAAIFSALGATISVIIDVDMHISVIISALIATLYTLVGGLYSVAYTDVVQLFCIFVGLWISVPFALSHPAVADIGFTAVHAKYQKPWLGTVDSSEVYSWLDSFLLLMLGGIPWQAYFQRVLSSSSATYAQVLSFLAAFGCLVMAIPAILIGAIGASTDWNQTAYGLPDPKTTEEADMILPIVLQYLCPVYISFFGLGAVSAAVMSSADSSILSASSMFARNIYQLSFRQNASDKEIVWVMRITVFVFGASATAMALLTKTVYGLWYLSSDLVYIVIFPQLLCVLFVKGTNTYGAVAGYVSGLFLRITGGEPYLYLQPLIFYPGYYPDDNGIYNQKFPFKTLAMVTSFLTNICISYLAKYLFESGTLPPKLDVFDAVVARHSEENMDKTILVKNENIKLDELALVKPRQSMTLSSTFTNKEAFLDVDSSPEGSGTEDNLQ

[10] = Counterscreen for antagonists of the human trace amine associated receptor 1 (hTAAR1): Fluorescence-based cell-based high throughput dose response assay to identify nonselective Ga16 antagonists.; assay type: functional
[11] = target: T2, Trace amine-associated receptor 1 (Homo sapiens, UniProt Q96RJ0); experiment: Fluorescence-based cell-based high throughput dose response assay to identify antagonists of the human trace amine associated receptor 1 (TAAR1).; assay type: functional
T2 sequence (Q96RJ0 whole entry): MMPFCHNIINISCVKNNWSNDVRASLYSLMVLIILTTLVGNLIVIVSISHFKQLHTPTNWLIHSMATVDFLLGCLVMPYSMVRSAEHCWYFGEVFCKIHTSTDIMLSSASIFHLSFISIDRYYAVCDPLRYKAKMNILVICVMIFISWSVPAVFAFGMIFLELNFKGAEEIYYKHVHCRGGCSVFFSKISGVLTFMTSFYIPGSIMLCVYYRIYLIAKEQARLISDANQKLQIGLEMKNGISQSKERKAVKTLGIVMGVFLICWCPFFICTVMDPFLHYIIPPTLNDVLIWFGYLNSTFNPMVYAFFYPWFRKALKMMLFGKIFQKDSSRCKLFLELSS

[12] = Counterscreen for […] of the human trace amine associated receptor 1 (TAAR1): Fluorescence-based cell-based high throughput dose response assay to identify nonselective Ga16 agonists.; assay type: functional
[13] = target: T2, Trace amine-associated receptor 1; experiment: Counterscreen for antagonists of the human trace amine associated receptor 1 (hTAAR1): Fluorescence-based cell-based high throughput dose response assay to identify TAAR1 Agonists.; assay type: functional
[14] = target: NAD-dependent protein deacylase sirtuin-5, mitochondrial (Homo sapiens, UniProt Q9NXA8); experiment: SIRT5 desuccinylase inhibitors, dose response, biochemical, fluorescence imaging, cherry-pick, set 5 (AID 720591);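 also: desuccinylation of succinyl peptide AMC substrate read as fluorescence after trypsin release; potency of inhibitors that lower fluorescence and may act on trypsin instead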
Sequence of NAD-dependent protein deacylase sirtuin-5, mitochondrial (Q9NXA8 whole entry): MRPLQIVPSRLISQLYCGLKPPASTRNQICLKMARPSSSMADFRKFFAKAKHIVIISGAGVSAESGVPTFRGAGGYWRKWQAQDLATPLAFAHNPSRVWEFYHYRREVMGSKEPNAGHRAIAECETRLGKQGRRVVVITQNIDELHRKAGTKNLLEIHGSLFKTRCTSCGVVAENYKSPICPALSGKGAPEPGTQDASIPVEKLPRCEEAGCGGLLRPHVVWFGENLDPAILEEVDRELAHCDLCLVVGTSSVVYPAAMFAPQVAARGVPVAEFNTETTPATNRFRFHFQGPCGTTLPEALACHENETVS

[15] = miR-122 activators in hepatoma reporter cells, dose response, cell-based, Huh7 psiCHECK-miR122, Renilla luciferase, cherry-picked (AID 651956); assay type: functional;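 also: huh7 hepatoma cells stably carrying a psiCHECK-2 miR-122 sensor plasmid; renilla luciferase signal reporting endogenous miR-122 activity after 48 h compound exposure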
[16] = HEK293T cytotoxicity, dose response, cytotoxicity control for miR-122 modulator project, cell-based, inhibitor set, cherry-pick, set 2 (AID 720697); assay type: functional
[17] = target: 5-hydroxytryptamine receptor 5A (Homo sapiens, UniProt P47898); experiment: Counterscreen for agonists of OPRM1-OPRD1 heterodimerization: luminescence-based cell-based high throughput dose response assay to identify agonists of 5-hydroxytryptamine (serotonin) 5A receptor (HTR5A). [Related pubchem assays (depositor defined):AID504326, AID504355, AID504692, AID504904, AID504905]; assay type: functional
Sequence of 5-hydroxytryptamine receptor 5A (P47898 whole entry): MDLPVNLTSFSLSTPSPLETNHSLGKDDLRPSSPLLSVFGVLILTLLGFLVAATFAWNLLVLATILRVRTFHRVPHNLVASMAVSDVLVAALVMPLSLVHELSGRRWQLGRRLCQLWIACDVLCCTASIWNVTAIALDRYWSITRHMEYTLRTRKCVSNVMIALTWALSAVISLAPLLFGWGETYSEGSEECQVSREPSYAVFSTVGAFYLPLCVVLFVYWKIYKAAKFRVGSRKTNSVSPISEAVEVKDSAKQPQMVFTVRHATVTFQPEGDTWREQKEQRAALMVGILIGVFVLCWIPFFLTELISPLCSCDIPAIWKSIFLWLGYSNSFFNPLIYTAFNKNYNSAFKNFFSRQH

Beta Lactamase = Beta Lactamase (Pseudomonas aeruginosa, UniProt Q932Y6); experiment: beta-lactamase reporter inhibitor potency, dose response, artefact control for NOD2-RIPK2 interaction inhibitor project, BLA reporter cells, FRET fluorescence (AID 651552); assay type: functional, cell-based
Sequence of Beta Lactamase (Q932Y6 whole entry): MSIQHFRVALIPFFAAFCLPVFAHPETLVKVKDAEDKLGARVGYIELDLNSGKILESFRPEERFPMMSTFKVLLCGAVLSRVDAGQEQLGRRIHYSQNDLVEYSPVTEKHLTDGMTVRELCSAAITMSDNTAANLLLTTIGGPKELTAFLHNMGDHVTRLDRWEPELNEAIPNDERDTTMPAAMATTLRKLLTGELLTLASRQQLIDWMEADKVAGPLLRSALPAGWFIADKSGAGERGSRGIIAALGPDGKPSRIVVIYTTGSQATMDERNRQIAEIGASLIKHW

[18] = target: T3, Rac GTPase-activating protein 1 (Homo sapiens, UniProt Q9H0H5); experiment: MgcRacGAP GTPase-activating activity inhibitors, confirmation, biochemical, ADP Hunter fluorescence, primary and confirmatory (AID 624330); assay type: functional
T3 sequence (Q9H0H5 whole entry): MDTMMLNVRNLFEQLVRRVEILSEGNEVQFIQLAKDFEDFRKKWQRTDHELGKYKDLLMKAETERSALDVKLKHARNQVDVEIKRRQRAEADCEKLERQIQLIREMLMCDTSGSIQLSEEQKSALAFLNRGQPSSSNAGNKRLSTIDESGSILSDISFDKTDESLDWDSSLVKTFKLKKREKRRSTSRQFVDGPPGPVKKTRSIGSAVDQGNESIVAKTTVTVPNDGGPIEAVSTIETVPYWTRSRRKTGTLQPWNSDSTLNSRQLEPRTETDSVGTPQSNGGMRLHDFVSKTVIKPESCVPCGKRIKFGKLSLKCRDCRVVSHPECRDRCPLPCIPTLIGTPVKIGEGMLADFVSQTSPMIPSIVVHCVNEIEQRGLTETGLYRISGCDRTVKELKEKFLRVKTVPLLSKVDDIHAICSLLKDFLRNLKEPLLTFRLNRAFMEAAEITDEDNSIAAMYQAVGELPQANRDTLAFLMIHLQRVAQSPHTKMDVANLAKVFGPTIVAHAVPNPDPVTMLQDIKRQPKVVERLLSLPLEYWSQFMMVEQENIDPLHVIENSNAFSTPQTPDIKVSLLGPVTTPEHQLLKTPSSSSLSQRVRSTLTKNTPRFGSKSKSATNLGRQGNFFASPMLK

[19] = target: E3 ubiquitin-protein ligase UHRF1 (Homo sapiens, UniProt Q96T88); experiment: Counterscreen for inhibitors of 5-meCpG-binding domain protein 2 (MBD2): TRFRET-based biochemical high throughput dose response assay to identify inhibitors of binding of ubiquitin-like with PHD and ring finger domains 1 (UHRF1) to methylated oligonucleotide.
Sequence of E3 ubiquitin-protein ligase UHRF1 (Q96T88 whole entry, the tested form may be a part): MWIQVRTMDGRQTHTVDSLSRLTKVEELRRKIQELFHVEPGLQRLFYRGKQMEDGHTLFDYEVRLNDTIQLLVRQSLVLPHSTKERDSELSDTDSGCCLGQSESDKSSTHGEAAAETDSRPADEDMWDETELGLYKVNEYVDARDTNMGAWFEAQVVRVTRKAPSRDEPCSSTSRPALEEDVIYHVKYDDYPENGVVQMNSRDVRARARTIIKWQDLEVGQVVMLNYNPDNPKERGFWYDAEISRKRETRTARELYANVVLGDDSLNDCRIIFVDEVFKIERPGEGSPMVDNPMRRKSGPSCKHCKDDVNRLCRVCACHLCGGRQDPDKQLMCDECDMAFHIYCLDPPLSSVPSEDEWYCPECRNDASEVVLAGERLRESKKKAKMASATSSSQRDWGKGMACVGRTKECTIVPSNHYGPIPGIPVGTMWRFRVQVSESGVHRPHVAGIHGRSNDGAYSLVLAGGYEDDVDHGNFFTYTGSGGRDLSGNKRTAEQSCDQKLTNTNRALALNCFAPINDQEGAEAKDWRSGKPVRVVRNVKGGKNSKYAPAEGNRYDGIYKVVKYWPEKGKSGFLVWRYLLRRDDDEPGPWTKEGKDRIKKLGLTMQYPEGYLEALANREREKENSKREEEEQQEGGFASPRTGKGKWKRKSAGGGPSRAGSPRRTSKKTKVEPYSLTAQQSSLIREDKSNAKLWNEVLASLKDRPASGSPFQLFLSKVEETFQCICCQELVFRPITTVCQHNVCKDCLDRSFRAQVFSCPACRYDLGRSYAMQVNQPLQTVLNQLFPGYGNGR

Mu-type opioid receptor = Mu-type opioid receptor (Homo sapiens, UniProt P35372); experiment: (§1) Counterscreen for agonists of heterodimerization of the mu 1 (OPRM1) and delta 1 (OPRD1) opioid receptors: Luminescence-based cell-based high throughput dose response assay to identify agonists of OPRM1 homodimerization.; assay type: functional
Sequence of Mu-type opioid receptor (P35372 whole entry): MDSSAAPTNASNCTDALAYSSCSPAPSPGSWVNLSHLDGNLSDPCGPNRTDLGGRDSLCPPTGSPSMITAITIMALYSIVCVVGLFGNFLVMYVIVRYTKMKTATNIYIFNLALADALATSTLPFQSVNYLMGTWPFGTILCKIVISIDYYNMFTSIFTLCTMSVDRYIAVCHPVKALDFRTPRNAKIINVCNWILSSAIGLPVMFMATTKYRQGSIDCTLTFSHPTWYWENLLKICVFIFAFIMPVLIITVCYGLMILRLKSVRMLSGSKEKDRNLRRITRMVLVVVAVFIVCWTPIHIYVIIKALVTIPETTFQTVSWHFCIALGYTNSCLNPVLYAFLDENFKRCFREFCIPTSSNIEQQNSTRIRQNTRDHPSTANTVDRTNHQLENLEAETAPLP

[20] = target: Delta-type opioid receptor (Homo sapiens, UniProt P41143); experiment: as §1, with “of OPRD1” for “of OPRM1”, “homodimerization. [Related pubchem assays (depositor defined):AID504326, AID504355, AID504692, AID504904, AID504905]” for “homodimerization.”; assay type: functional
Sequence of Delta-type opioid receptor (P41143 whole entry): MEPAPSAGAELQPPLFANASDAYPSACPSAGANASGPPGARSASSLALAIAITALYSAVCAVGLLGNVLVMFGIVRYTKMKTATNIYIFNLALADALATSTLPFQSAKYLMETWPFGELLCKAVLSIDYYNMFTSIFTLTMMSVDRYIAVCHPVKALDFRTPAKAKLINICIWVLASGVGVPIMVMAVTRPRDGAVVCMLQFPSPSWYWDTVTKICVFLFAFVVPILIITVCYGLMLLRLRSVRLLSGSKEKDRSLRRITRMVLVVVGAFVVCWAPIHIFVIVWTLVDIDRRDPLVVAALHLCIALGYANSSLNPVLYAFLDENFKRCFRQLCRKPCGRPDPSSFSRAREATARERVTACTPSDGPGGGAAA

[21] = HeLa cell cytotoxicity, dose response, cytotoxicity control for MgcRacGAP inhibitor project (AID 624300); assay type: functional
[22] = Fluorescence-based cell-based high throughput dose response assay for inhibitors of the interaction of nucleotide-binding oligomerization domain containing 2 (NOD2) and the receptor-interacting serine-threonine kinase 2 (RIPK2).; assay type: functional; settings: Homo sapiens
Streptococcus = experiment: Group A Streptococcus viability loss, dose response, counter-screen for streptokinase expression inhibitor project, luminescence, BacTiterGlo (AID 1915); assay type: functional, organism-based;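 also: potency for reduction of bacterial viability or growth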
[23] = human group III sPLA2 inhibitors, dose response, biochemical, QFRET, IC50 (AID 743457);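 also: green fluorescence rise as the enzyme cleaves BODIPY PC-A2 in liposomes; potency for inhibition of the enzyme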
[24] = target: Induced myeloid leukemia cell differentiation protein Mcl-1 (Homo sapiens, UniProt Q07820); assay type: functional
Sequence of Induced myeloid leukemia cell differentiation protein Mcl-1 (Q07820 whole entry): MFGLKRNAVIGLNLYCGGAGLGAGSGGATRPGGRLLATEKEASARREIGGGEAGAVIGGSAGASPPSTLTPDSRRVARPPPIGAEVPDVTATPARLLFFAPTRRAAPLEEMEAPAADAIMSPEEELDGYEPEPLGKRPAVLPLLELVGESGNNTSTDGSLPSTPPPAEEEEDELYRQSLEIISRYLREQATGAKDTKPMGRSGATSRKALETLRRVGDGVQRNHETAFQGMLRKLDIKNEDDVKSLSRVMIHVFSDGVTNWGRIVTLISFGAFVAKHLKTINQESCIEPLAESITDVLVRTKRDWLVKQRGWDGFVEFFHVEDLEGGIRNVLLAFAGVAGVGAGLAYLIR

[25] = test system: Streptococcus sp. 'group A'; experiment: growth inhibition of control SK(-) GAS strain, dose response, counter-screen for streptokinase expression inhibitor project, luminescence, kanamycin, BacTiterGlo, confirmation (AID 1900); assay type: functional, organism-based
[26] = A549 cell cytotoxicity, dose response, cytotoxicity control, cherry-picks, 26 µM top dose (AID 1053119); assay type: functional, cell-based
[27] = P. falciparum Dd2 growth inhibitors, dose response, SYBR Green, dry powder samples (AID 1159566); assay type: functional, cell-based;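 also: potency for growth inhibition with lower SYBR green DNA signal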
[28] = HEK293 cell cytotoxicity, dose response, cytotoxicity control, cherry-picks, set 5 (AID 1053117); assay type: functional, cell-based
[29] = P. falciparum 3D7-ScDHODH growth inhibitors, dose response, SYBR Green, dry powder samples (AID 1159570); assay type: functional, cell-based;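 also: parasite growth measured after 72 hours of compound exposure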
[30] = P. falciparum ATP4 D1247Y mutant growth inhibitors, dose response, NITD609-resistant line, SYBR Green, dry powder (AID 1159571); assay type: functional, cell-based;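 also: parasites synchronized at ring stage by sorbitol before testing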
[31] = HepG2 cell cytotoxicity, dose response, cytotoxicity control, plate reader, dry powder samples (AID 1159569); assay type: functional, cell-based;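 also: inhibitor potency with signal falling toward the positive control level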
[32] = HepG2 cell cytotoxicity, dose response, cytotoxicity control, cherry-picks, set 5 (AID 1053118); assay type: functional, cell-based
[33] = P. falciparum Dd2 growth inhibitors, dose response, SYBR Green, cherry-picked samples (AID 1159567); assay type: functional, cell-based

O=C1C(Nc2ccc(F)cc2)=C(N2CCCCC2)C(=O)c2ccccc21
active: AC50 [1] 25.8 µM | AC50 [2] 8.63 µM | AC50 [3] 14.1 µM | AC50 [4] 57.6 µM | AC50 [5] 27.4 µM | AC50 [6] 8.64 µM | AC50 [7] 14.1 µM | AC50 [8] 2.24 µM

COc1ccc(C(=O)NC(C)Cc2ccccn2)cc1OC1CCN(C(C)C)CC1 (stereo unspecified)
active: IC50 [9] 4.6 µM

NC(=O)COc1cccc(/C=N/NC(=O)c2ccc(-n3cccc3)cc2)c1
active: IC50 [11] > 1.11 µM
inactive: IC50 [10] > 29.9 µM | EC50 [12] > 29.9 µM | EC50 [13] > 29.9 µM

Cc1noc(C)c1NC(=O)N(C)C[C@@H]1Oc2cc(Br)ccc2S(=O)(=O)N([C@@H](C)CO)C[C@H]1C
inactive: AC50 [14] > 30 µM

Cc1cc2[nH]c3c4ccccc4nc(C)c3c2cc1C
inactive: EC50 [17] > 92.4 µM | IC50 (Beta Lactamase) 23.6 µM | IC50 [19] 19 µM | EC50 (Mu-type opioid receptor) > 92.4 µM | EC50 [20] > 92.4 µM | IC50 [22] 15.5 µM
active: AC50 [15] 10.8 µM | AC50 [16] 3.57 µM | IC50 [18] 38.9 µM | CC50 [21] 12.4 µM

Cc1cccc(C(=O)NC(=S)NNC(=O)c2ccc(Cl)cc2)c1
inactive: IC50 [23] 21.9 µM
25.8 µM (not active): IC50 [24]
active: EC50 (Streptococcus) 1.09 µM | EC50 [25] 0.362 µM

CO[C@H]1CN(C)C(=O)c2cc(NC(=O)Nc3ccc(C(F)(F)F)cc3)ccc2OC[C@H](C)NC[C@H]1C
inactive: AC50 [26] > 52 µM | AC50 [28] > 52 µM | AC50 [32] > 52 µM
active: AC50 [27] 1.56 µM | AC50 [29] 1.37 µM | AC50 [30] 2.76 µM | AC50 [31] 19.2 µM | AC50 [33] 2.49 µM

— ChEMBL document CHEMBL1201862, “PubChem BioAssay data set” (2004)
